{"source": "patent US20250270165A1", "about": "“COMPOSITIONS FOR AND METHODS OF MODULATING RNA STABILITY” (Duke University, priority 2022, published 2025)", "key": {"[1]": {"tested_on": "MALAT1 triple helix", "assay": "RNase A enzymatic degradation assay", "format": "biochemical, human", "details": "5-minute time point, relative to DMSO control", "experimental": "RNase A Enzymatic Degradation Assay.\nThe procedure was adapted from a published protocol for exonucleolytic enzymatic degradation assay. (Donlic A, et al. (2020) Nucleic Acids Res. 48(14):7653-7664). The MALAT1 destabilizing small molecules published by Le Grice (Abulwerdi F A, et al. (2019) ACS Chem Biol. 14(2):223-235) and co-workers SM5 and SM16 were purchased from ChemBridge. For a typical 70 μL reaction, […] of MALAT1 triple helix RNA was annealed in the same buffer used for IDA and DSF experiments (20 mM HEPES-KOH, 52 mM KCl, 0.1 mM MgCl2, pH=7.4) by heating at 95° C. for 3 minutes, snap-cooling on ice for 10 minutes, and leaving the solution at room temperature for 1 hr.\nRNase A enzyme (ThermoFisher) was diluted to 1.46 nM and incubated with 1 M NaCl for 30-35 minutes to achieve ssRNA selectivity as reported. (Struhl K, et al. (1989) Current Protocols in Molecular Biology. 8(1):3.13.1-3.13.3). Next, the RNA was mixed with […] of a CC-rich DNA duplex, 0.2 mM of small molecule/DMSO and incubated at room temperature for 20 minutes. Following the incubation, […] of RNase A was added, and the reaction was incubated at 37° C. for 1 hour in a thermal cycler with a heated lid (Eppendorf). 4 μL timepoint aliquots were taken at 0, 5, 10, 30, and 60 minutes, 4 μL of 2×RNA loading dye was added to each aliquot (ThermoFischer Scientific), and samples were stored at −80° C. prior to gel analysis. Reactions were analyzed on pre-cast 15% PAGE-Urea gels (Invitrogen) in 1×TBE buffer. Aliquots were thawed from −80° C. storage and heated to 95° C. for 15 minutes prior to gel loading and […] were loaded in each well. Gels were run for 45 minutes at 180 V, stained with Diamond™ Nucleic Acid dye (Promega), and visualized on an iBright 500 (ThermoFisher). DMSO controls were ran with every set of 4 small molecules to ensure consistency of enzyme activity and RNA integrity. Gel band intensity of the MALAT1 triple helix and DNA loading control were quantified using ImageJ software. (Rueden C T, et al. (2017) BMC Bioinformatics. 18(1):529).\nTo quantify time-dependent endonucleolytic degradation for each sample, the intensity was normalized using Equation (3), and fold-difference was calculated as listed in Equation (4) as previously reported. (Donlic A, et al. (2020) Nucleic Acids Res. 48(14):7653-7664).\nwhere y is fold-difference of the exonucleolytic degradation for the specific sample, with normalized areas for its specific time point x and time point 0 calculated as described in Equation (3). Percent RNA degraded was calculated for every time point using Equation (5).\n% RNA degraded=(Normalized area (t0)−Normalized area (tx))*100 (Equation 5)\nExperimental results shown in FIG. 6C are plotted as three independent replicates and standard deviation between replicates as error bars. Relative fold change between treated condition and DMSO was calculated from Equation (6)."}, "[2]": {"tested_on": "MALAT1 triple helix", "assay": "Differential scanning fluorimetry (DSF), triplex thermal stability", "format": "binding, human", "experimental": "Differential Scanning Fluorimetry. Differential scanning fluorimetry experiments were performed as previously reported. (Donlic A, et al. (2020) Nucleic Acids Res. 48(14):7653-7664). All experiments were performed in white 96 well plates in a LightCycler® 96 (Roche). In a typical experiment, 4 μM of RNA was annealed in the same buffer used for indicator displacement assays (20 mM HEPES-KOH, 52.6 mM KCl, 0.1 mM MgCl2, pH=7.4) by heating at 95° C. for 3 minutes, snap-cooling on ice for 10 minutes, and leaving the solution at room temperature for 1 hr. Then, 42 μL of this solution was aliquoted to wells and 5 μM of ligand was added (2.5 μL of water, 2.0 μL of DMSO, 0.5 μL of 500 μM small molecule stock). The mixture was left to incubate at room temperature for 5 minutes, after which 3 μL of a 20 µM Quant-iT™ RiboGreen™ (ThermoFisher Scientific) dye stock solution in appropriate buffer was added to each well. The 96 well plate was then sealed with an optically clear foil and centrifuged for 1 minute at 4000 rpm prior to being placed in the instrument. The light cycler program was created by selecting the melting curve method; fluorescence intensity was monitored using the SYBR Green I/HRM dye filter combination (465-510 nm) from 37-98° C. at a ramp rate of 0.01° C./second with 150 acquisitions per ° C. Melting profiles were obtained by Tm analysis in the LightCycler® 96 software (SW 1.1)."}, "[3]": {"tested_on": "LNCaP cells", "assay": "MTT assay in LNCaP cells", "format": "cell-based, human", "source_text": "The MTT reagent (3-(4,5-dimethylthiazol-2-yl)-2,5-diphenyl-2H-tetrazolium bromide) is a mono-tetrazolium salt that consists of a positively charged quaternary tetrazole ring core containing four nitrogen atoms surrounded by three aromatic rings including two phenyl moieties and one thiazolyl ring. Reduction of MTT results in disruption of the core tetrazole ring and the formation of a violet-blue water-insoluble molecule called formazan. The MTT reagent can pass through the cell membrane as well as the mitochondrial inner membrane of viable cells presumably due to its positive charge as well as its lipophilic structure and is reduced to formazan by metabolically active cells. The chromogenic nature of this redox chemical reaction provides a colorimetric-based measurement of intracellular formazan production based on which the MTT assay was developed. Consequently, the assay has extensive utility as a cell metabolic activity assay.\nIn the first set of […] experiments, four (4) members of the small molecule library were examined in a MTT assay. […] The IC50 values and trends were similar to the apparent small molecule affinities for MALAT-1, supporting a MALAT-1 related mechanism for the toxicity. […] Ongoing cytotoxicity studies using other DMZ small molecule analogs (as well as DMZ-5, DMZ-P13, and DMZ-P17) continue to illuminate mechanism of action regarding toxicity to cancer cells."}}, "data": [{"smiles": "N=C(N)c1ccc(/N=N/Nc2ccc(C(=N)N)cc2)cc1", "note": "[DMZ-P0, diminazene, reference compound]", "values": [{"measurement": "stabilizer or destabilizer of MALAT1 triplex (RNase A degradation)", "setting": "[1]", "value": "destabilizers"}, {"measurement": "effect on MALAT1 triplex thermal stability (DSF), in words", "setting": "[2]", "value": "increases in thermal stability"}, {"measurement": "IC50 relative to other tested library members, in words", "setting": "[3]", "value": "much higher IC50"}]}]}
